# Assay results: US8133471B2, “CLK-peptide and SLK-peptide” (New York University, priority 2003, dated 2012)
# Experiments:
# [1] = tested on: Human endothelial cells (HUVECs); assay: Endothelial cord formation in MATRIGEL; assay type: cell-based; conditions: 0 to 100 μg/ml, 24 hours
# Procedure: FIG. 6 Effects of CLK Peptide on HUVEC Cord Formation in MATRIGEL®. MATRIGEL was added to 96-well plates and allowed to form three-dimensional gels. […] Representative photos were taken at a magnification of 100×. A. Untreated control. B. CLK 25 μg/ml. C. CLK 50 μg/ml. D. CLK 100 μg/ml. E. Control Peptide 100 μg/ml.
# The role that the CLK cryptic collagen epitope plays in regulating endothelial cell morphogenesis and cord formation, processes important in angiogenesis, were investigated. MATRIGEL was diluted in M199 medium and 300 μl were added to the wells of a 48-well culture plate and allowed to polymerize. […] Endothelial morphogenesis and cord formation was monitored with an inverted microscope fitted with a 35 mm camera to document cord formation.
# [2] = tested on: denatured collagen type-IV; assay: Competition ELISA, mAb HUIV26 or HUI77 binding to denatured collagen with or without CLK-peptide (Example 16); conditions: collagen coated at 10 μg/ml; 1:1 ratio
# Procedure: FIG. 17 CLK-Peptide Binds to the HUI77 Cryptic Collagen Epitope. To examine the epitope bound by CLK, competition ELISAs were carried out. Microtiter wells were coated with denatured collagen type-IV (10 μg/ml), and mAb HUIV26 or HUI77 were allowed to bind the denatured collagen in the presence or absence of CLK-peptide.
# ELISAs were performed to examine the binding specificity of CLK-Peptide. Denatured type-IV collagen (10 μg/ml) was coated on microtiter wells and CLK-peptide allowed to bind in the presence or absence of Mab HUI77 or Mab HUIV26 at a 1:1 ratio. HRP-labeled goat anti-mouse secondary antibodies were used to detect murine Mabs HUI77 and HUIV26, directed to distinct cryptic epitope within collagen type-IV, and the O.D. at 490 nm measured.
# [3] = tested on: GL261 glioblastoma tumors; assay: GL261 tumors grown on chick CAMs, CLK-peptide combined with ionizing radiation; assay type: in vivo; conditions: CLK-peptide 50 μg/embryo + 5.0 Gy; 7-day incubation
# Procedure: FIG. 25 Effects of CLK-Peptide on Anti-Tumor Activity of Ionizing Radiation In Vivo. Glioblastoma tumors grown on CAMs were treated with either CLK-Peptide, ionizing radiation, both, or left untreated as a control. Their relative sizes after incubation are shown. FIG. 26 Quantitation of the Effects of CLK-Peptide on Anti-tumor Activity of Ionizing Radiation in vivo. Glioblastoma tumors grown on CAMs were treated with either CLK-Peptide, ionizing radiation, both, or left untreated as a control. Their relative wet weights following treatment are graphed. The effects of CLK-peptide in combination with ionizing radiation on tumor growth in vivo were assessed. GL261 glioblastoma cells were seeded on the CAMs of 10-day old chick embryos. Twenty-four hours later, the embryos were injected systemically with CLK-peptide (50 μg/embryo). Twenty-four hours after CLK-peptide treatment the embryos were either untreated or irradiated with a single fraction dose of ionizing radiation (5.0 Gy). Photographs showing the relative sizes of […] given each treatment individually, the combination treatment, and not treated, are shown in FIG. 25. At the end of the 7-day incubation period the tumors (N=6 to 8 per condition) were removed and wet weights determined.
# [4] = tested on: denatured collagen type-IV; assay: Solid phase ELISA, labeled CLK-peptide binding to denatured collagen type-IV
# Procedure: FIG. 15 CLK-Peptide Reacts with a Cryptic Epitope in Collagen Type-IV In Vitro. Reactivity of biotin-labeled CLK-Peptide was assessed by solid phase ELISA. Reactivity was monitored by incubation with HRP-labeled streptavidin. […] All data was corrected for nonspecific binding of HRP-labeled streptavidin only. Data bars represent the mean optical density (O.D.)±standard deviation from triplicate wells. Assays were repeated 2 to 3 times with similar results.
# The CLK-peptide was labeled with HRP and used in solid phase ELISA to assess differential binding to either native or denatured collagen type-IV. Microtiter plates were coated with either native or denatured collagen type-IV and HRP-labeled CLK-peptide was allowed to bind. […] In contrast, CLK-Peptide readily bound to denatured collagen type-IV. […] To determine whether this cryptic epitope was also exposed within the ECM in vivo, biotin-labeled CLK-peptide was used to stain M21 human melanoma tumors growing in nude mice (results shown in FIGS. 16A and B and described in Example 15).
# Human melanoma cells M21 = assay: M21 melanoma cell adhesion to denatured collagen type-IV (Example 2); assay type: cell-based; conditions: M21 cells on denatured collagen type-IV; peptide 250 μg/ml
# Excerpt: FIG. 1 is a chart which illustrates M21 human melanoma cell adhesion to untreated denatured type-IV collagen (NT), CLK-peptide treated denatured collagen type-IV, SLK-peptide treated denatured collagen type-IV, and SDR-peptide treated denatured collagen type-IV.
# SLK peptides bind to functional epitopes within denatured collagen type-IV that regulate cellular adhesion. Non-tissue culture treated 48-well plates were coated with denatured collagen type-IV. Human melanoma cells M21 (Scripps Research Institute, La Jolla, Calif.) were allowed to attach to the coated wells in the presence or absence of the synthetic peptides CLK, SLK, and SDR, each peptide was at a concentration of 250 μg/ml. SDR peptide is a commercially available peptide that was used as a control (QED Bioscience, Inc., San Diego, Calif.).
# Human denatured collagen type-IV (25 μg/ml) was immobilized on 48-well nontissue culture treated plates. Wells were washed and incubated with 1% BSA (bovine serum albumin) in PBS (phosphate-buffered saline) for one hour at 37° C. Subconfluent […] were harvested, washed, and resuspended in adhesion buffer containing RPMI-1640 medium, 1 mM MgCl2, 0.2 mM MnCl2, and 0.5% BSA. […] Cell adhesion was quantified by measuring the optical density of eluted crystal violet at a wavelength of 600 nm.
substance,measurement,setting,value
"H-CLKQNGGNFSLG-OH [CLK-peptide, NH2-C-L-K-Q-N-G-G-N-F-S-L-G-COOH]",effect on endothelial cord formation,[1],dose-dependently inhibited
same,blocking of mAb HUI77 binding to denatured collagen,[2],significantly blocked
same,blocking of mAb HUIV26 binding to denatured collagen,[2],did not block
same,"inhibition of tumor growth (wet weights), combination therapy versus either treatment alone",[3],greater
same,binding to denatured collagen type-IV,[4],readily bound
same,blockade of melanoma cell adhesion,Human melanoma cells M21,exceeded 95%
